The record followed here is patent US20210283163A1, “COMPOSITIONS AND METHODS FOR THE TREATMENT OF ACUTE AND CHRONIC PRURITIS” (Duke University, priority 2018, published 2021).

What all share (type): cell-based
Data set [1] concerns the target T1, TRPV1 (Mus musculus, UniProt Q704Y3).
T1 construct: expressed in transfected cells; host or cells: CHO cells (ATCC CRL-9096), plasmid pcDNA3.1-mTrpv1, a gift from Korea University
The experiment in a line: Whole-cell patch clamp in CHO cells transfected with mouse Trpv1 cDNA. The settings on record: miR-711 10 μM; capsaicin 50 nM. As to the method:
(§1) Constructs. The cDNAs of mouse pcDNA3.1-Trpa1, pcDNA3.1-Trpv1, pcDNA3.1-Trpv2, pcDNA3.1-Trpv3, and pcDNA3.1-Trpv4 were kindly provided Dr. Sun Work Hwang from Korea University. Mouse Trpa1 cDNA was subcloned into pCGN-HA backbone (Addgene) using In-Fusion HD Cloning Kit (Clontech Laboratories, CA). Q5 Site-Directed Mutagenesis Kit was used to generate mTrpa1 mutant (M1-M13) based on pCGN-mTrpa1.
(§2) Cell Culture and Transfection. CD4^+ Myla cell line was cultured in RPMI 1640 media (GIBCO), supplemented with 2 mM Glutamine (GIBCO), 100 U/mL IL-2 (Sigma), 100 U/mL IL-4 (Sigma), and 10% human AB serum (Sigma). HuT 102 cell line was cultured in RPMI 1640 supplemented with pyruvate, HEPES, and 10% (v/v) fetal bovine serum (HyClone). HEK293-hTRPA1 stable cell line was cultured in MEM (GIBCO) containing 2 mM Glutamine, 4 μg/mL Blasticidin, 10% FBS (v/v). B16 and CHO cells were cultured in high glucose (4.5 g/L) Dulbecco's Modified Eagle's Medium (GIBCO) containing 10% (v/v) fetal bovine serum (GIBCO). Culture media were supplemented with 50 units/mL of penicillin and 50 μg/mL streptomycin, and cultures were maintained with 5% CO2 in 37° C. incubator. Transfection (2 μg cDNA) was performed with Lipofectamine™ 2000 Reagent (Invitrogen) at 80% confluency and the transfected cells were cultured in the same media for 48 hr before electrophysiological and biochemical studies. […]
For orientation: Patch clamp records ionic current or voltage across a cell membrane.

The subject of data set [2] is calcium channels. The experiment in a line: Calcium current recording in mouse DRG neurons. The settings on record: 10 μM, 1 min. As to the method: To test the effects of miR-711 on calcium channels, calcium currents were recorded in mouse DRG neurons (Andrade et al., Nat. Neurosci. 2010, 13, 1249-1256). Calcium current was evoked by a 40-ms step depolarization to −10 mV from the holding potential of −80 mV, using i) external solution (mM): 135 mM TEA-C1, 1 mM CaCl2, 10 mM HEPES, 4 mM MgCl2 and 0.1 μM TTX, adjusted to a pH of 7.4 with TEA-OH, and ii) the pipette solution: 126 mM CsCl, 5 mM Mg-ATP, 10 mM EGTA and 10 mM HEPES, adjusted to a pH of 7.3 with CsOH.

Data set [3] has as its target T2, TRPV4 (Mus musculus, UniProt Q9EPK8).
T2 construct: expressed in transfected cells; host or cells: CHO cells (ATCC CRL-9096), plasmid pcDNA3.1-mTrpv4, a gift from Korea University
The experiment in a line: Whole-cell patch clamp in CHO cells transfected with mouse Trpv4 cDNA. The following applies: miR-711 10 μM; GSK1016790A 1 μM. Here is the method: as §1, §2

Data set [4] concerns human DRG neurons. The experiment in a line: Whole-cell patch clamp, inward currents in human DRG neurons. The following applies: A967079 10 μM. Here is the method:
Non-diseased human DRGs were obtained from donors through National Disease Research Interchange (NDRI) with permission of exemption from the Duke University Institutional Review Board (IRB). Postmortem L3-L5 DRGs were dissected from 4 donors and delivered in ice cold culture medium to the laboratory at Duke University within 24-72 hr of the donor's death. Upon the delivery, DRGs were rapidly dissected from nerve roots and minced in a calcium-free HBSS (GIBCO). Human DRG cultures were prepared as previously reported (Chang et al., Neurosci. Bull. 2018, 34, 4-12; Han et al., Neuron 2016, 92, 1279-1293). DRGs were digested at 37° C. in a humidified CO2 incubator for 120 min with collagenase Type II (Worthington, 290 units/mg, 12 mg/mL final concentration) and dispase II (Roche, 1 unit/mg, 20 mg/mL) in PBS with 10 mM HEPES, pH adjusted to 7.4 with NaOH. DRGs were mechanically dissociated using fire-polished pipettes, filtered through a 100 μm nylon mesh and centrifuged (500 g for 5 min). The pellet was resuspended, plated on 0.5 mg/mL poly-D-lysine-coated glass coverslips, and grown in Neurobasal medium supplemented with 10% FBS, 2% B-27 supplement, and 1% penicillin/streptomycin. Whole-cell patch-clamp recordings in small (<[…]) human DRG neurons were conducted at room temperature using patch pipettes with resistances of 3-4 MΩ.
Whole-Cell Patch Clamp Recordings in HEK293 Cells, CHO Cells, and DRG Neurons. Whole-cell patch clamp recordings were performed at room temperature using an Axopatch-200B amplifier (Axon Instruments) with a Digidata 1440B (Axon Instruments). In this study, we only examined small-diameter mouse DRG neurons (<25 μM) and small-diameter human DRG neurons (<55 μM). The patch pipettes were pulled from borosilicate capillaries (World Precision Instruments) using a P-97 Flaming/Brown micropipette puller (Sutter Instrument). Pipette resistance was 4-6 MΩ for whole-cell and outside-out recording. […]

T1 sequence (Q704Y3 whole entry): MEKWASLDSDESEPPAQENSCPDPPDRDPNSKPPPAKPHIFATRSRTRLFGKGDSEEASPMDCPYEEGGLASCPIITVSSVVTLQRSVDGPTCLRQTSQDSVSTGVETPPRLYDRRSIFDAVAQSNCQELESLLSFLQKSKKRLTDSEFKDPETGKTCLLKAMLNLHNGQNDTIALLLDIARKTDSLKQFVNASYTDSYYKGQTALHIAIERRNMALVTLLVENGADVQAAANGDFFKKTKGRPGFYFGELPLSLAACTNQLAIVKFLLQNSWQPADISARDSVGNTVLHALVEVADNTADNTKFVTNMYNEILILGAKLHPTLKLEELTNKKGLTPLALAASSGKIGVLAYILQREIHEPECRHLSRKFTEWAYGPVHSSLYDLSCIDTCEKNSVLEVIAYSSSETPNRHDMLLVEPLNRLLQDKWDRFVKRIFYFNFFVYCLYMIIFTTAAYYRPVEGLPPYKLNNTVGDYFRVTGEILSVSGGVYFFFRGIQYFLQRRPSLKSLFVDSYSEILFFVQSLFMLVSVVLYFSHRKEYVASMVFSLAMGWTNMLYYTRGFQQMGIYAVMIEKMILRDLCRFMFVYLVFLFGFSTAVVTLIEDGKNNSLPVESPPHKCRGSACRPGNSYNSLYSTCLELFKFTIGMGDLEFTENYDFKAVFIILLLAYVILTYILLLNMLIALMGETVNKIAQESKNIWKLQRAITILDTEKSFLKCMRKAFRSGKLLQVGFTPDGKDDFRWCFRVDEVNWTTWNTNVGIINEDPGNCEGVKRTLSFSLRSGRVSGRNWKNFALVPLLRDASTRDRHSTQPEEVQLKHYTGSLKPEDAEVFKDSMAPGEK
T2 sequence (Q9EPK8 whole entry): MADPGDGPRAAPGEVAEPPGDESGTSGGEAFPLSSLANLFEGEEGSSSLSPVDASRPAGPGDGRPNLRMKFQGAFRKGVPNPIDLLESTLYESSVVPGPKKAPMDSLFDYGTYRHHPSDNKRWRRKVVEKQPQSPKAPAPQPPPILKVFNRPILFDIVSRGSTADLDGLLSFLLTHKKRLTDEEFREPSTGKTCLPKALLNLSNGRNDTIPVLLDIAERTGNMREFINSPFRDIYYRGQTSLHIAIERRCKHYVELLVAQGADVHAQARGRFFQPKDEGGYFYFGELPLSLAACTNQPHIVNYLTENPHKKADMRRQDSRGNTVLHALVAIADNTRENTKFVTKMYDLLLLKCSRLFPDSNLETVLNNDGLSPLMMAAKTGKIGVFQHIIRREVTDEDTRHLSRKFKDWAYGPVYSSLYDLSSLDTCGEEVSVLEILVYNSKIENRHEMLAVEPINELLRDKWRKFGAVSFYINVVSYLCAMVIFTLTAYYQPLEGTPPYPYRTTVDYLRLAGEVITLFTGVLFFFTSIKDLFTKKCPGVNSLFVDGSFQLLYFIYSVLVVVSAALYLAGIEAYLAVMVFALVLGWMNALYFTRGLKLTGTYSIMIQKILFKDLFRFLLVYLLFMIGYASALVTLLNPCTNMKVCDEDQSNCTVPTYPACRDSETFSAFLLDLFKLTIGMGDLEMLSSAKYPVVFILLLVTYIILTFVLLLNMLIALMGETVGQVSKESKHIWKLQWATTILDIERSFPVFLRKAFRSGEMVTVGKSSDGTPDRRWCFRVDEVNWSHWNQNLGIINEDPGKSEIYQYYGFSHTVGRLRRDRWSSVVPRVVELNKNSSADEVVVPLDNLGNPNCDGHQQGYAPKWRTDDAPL

In the case of “miR-711: mmu-miR-711: gggacccggggagagauguaag (SEQ ID NO: 5) (GGGACCCGGGGAGAGAUGUAAG; chemistry not given here)”, the inward currents entry in data set [1] and in data set [3] was “failed to trigger inward currents” each time. Moreover, the “calcium currents in DRG neurons” value in data set [2] was “did not alter calcium currents”.

As for `CCC(=N\O)/C(C)=C/c1ccc(F)cc1` [A967079, (1E,3E)-1-(4-Fluorophenyl)-2-methyl-1-pentene-3-one oxime], the “block of miRNA-evoked inward currents in human DRG neurons” value in data set [4] is “blocked”.
